Assay results reported in ChEMBL document CHEMBL3286108, “Novel arylsulfonamide derivatives with 5-HT₆/5-HT₇ receptor antagonism targeting behavioral and psychological symptoms of dementia” (J Med Chem, 2014).
The source made the active and inactive calls. The rule behind the calls is not given here.

What was measured:
[1] = molecular target: T1, 5-hydroxytryptamine receptor 2A (Homo sapiens, UniProt P28223); assay: biochemical; format: cell-based, CHO-K1
[2] = molecular target: T1, 5-hydroxytryptamine receptor 2A; assay: Antagonist activity at human recombinant 5-HT2A receptor expressed in CHO-K1 cells assessed as inhibition of alpha-methyl serotonin-induced response treated 15 to 30 mins before agonist challenge by luminescence analysis; format: cell-based
[3] = molecular target: T2, 5-hydroxytryptamine receptor 6 (Homo sapiens, UniProt P50406); assay: Antagonist activity at human recombinant 5-HT6 receptor expressed in CHO-K1 cells assessed as inhibition of serotonin-induced response treated 15 to 30 mins before agonist challenge by luminescence analysis; format: cell-based
[4] = molecular target: T3, Muscarinic acetylcholine receptor M1 (Homo sapiens) (UniProt P11229); assay: Displacement of [3H]pirenzepine from human recombinant M1 receptor expressed in CHO cells at 1 uM; format: cell-based
T3 sequence (whole entry): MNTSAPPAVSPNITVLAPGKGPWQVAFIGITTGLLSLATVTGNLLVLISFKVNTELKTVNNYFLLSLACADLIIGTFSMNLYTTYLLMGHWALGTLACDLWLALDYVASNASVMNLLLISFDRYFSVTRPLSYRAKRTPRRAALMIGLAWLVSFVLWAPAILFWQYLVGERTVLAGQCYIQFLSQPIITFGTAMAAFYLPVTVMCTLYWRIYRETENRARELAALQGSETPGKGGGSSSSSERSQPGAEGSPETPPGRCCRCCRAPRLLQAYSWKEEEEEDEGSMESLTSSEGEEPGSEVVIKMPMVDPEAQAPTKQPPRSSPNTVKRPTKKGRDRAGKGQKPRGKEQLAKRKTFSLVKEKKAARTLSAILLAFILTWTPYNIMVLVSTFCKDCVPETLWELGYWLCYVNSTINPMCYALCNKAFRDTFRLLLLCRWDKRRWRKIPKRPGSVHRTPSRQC

D(2) dopamine receptor [5] = molecular target: T4, D(2) dopamine receptor (Homo sapiens, UniProt P14416); assay: Agonist activity at human recombinant D2 receptor expressed in CHO-K1 cells by luminescence analysis; format: cell-based
[6] = molecular target: T1, 5-hydroxytryptamine receptor 2A; assay: Agonist activity at human recombinant 5-HT2A receptor expressed in CHO-K1 cells by luminescence analysis; format: cell-based
[7] = molecular target: T2, 5-hydroxytryptamine receptor 6; assay: biochemical
[8] = molecular target: T5, 5-hydroxytryptamine receptor 7 (Homo sapiens, UniProt P34969); assay: Agonist activity at human 5-HT7 receptor expressed in CHO-K1 cells assessed as cAMP accumulation after 60 mins by TR-FRET immunoassay; format: functional, cell-based
[9] = molecular target: T2, 5-hydroxytryptamine receptor 6; assay: Agonist activity at human recombinant 5-HT6 receptor expressed in CHO-K1 cells by luminescence analysis; format: cell-based
D(2) dopamine receptor [10] = molecular target: T4, D(2) dopamine receptor; assay: biochemical
[11] = molecular target: hERG (KCNH2) potassium channel (Homo sapiens, UniProt Q12809); assay: in vitro; conditions: CHO cells expressing human cloned ERG
[12] = molecular target: T5, 5-hydroxytryptamine receptor 7; assay: biochemical; format: cell-based, CHO-K1
[13] = molecular target: T5, 5-hydroxytryptamine receptor 7; assay: Antagonist activity at human 5-HT7 receptor expressed in CHO-K1 cells assessed as inhibition of serotonin-induced cAMP accumulation after 60 mins by TR-FRET immunoassay; format: functional, cell-based

T1 sequence (P28223 whole entry): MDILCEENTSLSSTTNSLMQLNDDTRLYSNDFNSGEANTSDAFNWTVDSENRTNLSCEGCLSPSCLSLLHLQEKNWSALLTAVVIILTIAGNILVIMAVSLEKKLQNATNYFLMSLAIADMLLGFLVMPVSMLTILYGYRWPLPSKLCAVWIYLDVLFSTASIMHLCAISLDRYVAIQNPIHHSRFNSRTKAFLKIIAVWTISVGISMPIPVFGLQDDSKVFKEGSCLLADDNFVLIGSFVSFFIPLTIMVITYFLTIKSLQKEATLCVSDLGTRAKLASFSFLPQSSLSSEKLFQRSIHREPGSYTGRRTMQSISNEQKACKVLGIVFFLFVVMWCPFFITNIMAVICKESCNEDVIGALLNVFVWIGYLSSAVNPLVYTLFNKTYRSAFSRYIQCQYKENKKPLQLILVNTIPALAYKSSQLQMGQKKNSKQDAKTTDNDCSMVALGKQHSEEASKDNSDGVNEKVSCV
Sequence of hERG (KCNH2) potassium channel (Q12809 whole entry): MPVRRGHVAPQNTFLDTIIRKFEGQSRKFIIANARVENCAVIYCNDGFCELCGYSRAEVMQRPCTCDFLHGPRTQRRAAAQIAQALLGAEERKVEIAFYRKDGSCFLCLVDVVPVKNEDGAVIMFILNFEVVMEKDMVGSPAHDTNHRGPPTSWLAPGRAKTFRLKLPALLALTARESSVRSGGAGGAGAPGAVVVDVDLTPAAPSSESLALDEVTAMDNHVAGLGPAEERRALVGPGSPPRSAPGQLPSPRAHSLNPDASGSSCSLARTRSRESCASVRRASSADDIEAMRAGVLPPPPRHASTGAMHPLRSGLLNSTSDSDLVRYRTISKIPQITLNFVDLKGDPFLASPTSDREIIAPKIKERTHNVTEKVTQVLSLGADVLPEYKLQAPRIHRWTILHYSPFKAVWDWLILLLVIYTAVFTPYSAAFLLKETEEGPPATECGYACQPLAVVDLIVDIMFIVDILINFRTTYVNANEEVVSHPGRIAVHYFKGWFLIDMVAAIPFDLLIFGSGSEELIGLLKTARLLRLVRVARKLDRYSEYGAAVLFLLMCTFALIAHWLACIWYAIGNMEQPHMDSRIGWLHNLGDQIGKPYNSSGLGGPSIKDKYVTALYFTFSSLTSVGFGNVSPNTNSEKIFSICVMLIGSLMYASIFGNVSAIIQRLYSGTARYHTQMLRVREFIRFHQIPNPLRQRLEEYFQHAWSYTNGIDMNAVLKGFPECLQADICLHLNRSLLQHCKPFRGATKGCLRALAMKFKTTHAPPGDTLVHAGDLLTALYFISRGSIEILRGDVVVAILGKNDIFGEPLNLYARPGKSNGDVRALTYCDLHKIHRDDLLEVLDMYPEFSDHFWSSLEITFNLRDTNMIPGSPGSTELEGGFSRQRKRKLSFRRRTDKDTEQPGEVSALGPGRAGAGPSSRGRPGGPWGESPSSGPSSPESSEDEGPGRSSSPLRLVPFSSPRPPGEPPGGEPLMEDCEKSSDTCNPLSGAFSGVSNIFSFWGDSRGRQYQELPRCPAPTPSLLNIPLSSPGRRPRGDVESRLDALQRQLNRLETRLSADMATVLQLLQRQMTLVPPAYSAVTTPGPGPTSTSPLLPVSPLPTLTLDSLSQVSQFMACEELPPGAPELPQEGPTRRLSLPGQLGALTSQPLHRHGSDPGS
T4 sequence (P14416 whole entry): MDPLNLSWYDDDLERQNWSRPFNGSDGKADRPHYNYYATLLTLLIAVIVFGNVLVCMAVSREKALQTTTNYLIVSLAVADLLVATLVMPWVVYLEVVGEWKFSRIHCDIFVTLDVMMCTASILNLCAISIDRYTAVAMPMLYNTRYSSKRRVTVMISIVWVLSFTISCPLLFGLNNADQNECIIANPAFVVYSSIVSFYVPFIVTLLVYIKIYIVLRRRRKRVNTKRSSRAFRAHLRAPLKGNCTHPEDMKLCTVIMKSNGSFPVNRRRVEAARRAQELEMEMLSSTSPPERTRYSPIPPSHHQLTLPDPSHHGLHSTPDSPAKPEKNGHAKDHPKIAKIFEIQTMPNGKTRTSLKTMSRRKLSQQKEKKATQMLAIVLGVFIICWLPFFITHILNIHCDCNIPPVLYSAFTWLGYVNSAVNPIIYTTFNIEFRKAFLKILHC
T2 sequence (P50406 whole entry): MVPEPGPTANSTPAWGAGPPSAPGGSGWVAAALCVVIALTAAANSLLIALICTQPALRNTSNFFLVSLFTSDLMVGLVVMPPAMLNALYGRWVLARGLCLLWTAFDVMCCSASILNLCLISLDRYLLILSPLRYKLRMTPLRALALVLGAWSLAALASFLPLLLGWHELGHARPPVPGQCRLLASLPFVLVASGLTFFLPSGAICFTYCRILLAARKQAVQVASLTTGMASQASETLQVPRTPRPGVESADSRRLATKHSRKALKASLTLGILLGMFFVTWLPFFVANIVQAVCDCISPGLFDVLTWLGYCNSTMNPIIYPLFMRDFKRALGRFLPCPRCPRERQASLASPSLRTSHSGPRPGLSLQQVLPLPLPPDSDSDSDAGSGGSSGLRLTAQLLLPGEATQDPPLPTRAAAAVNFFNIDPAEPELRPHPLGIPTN
T5 sequence (P34969 whole entry): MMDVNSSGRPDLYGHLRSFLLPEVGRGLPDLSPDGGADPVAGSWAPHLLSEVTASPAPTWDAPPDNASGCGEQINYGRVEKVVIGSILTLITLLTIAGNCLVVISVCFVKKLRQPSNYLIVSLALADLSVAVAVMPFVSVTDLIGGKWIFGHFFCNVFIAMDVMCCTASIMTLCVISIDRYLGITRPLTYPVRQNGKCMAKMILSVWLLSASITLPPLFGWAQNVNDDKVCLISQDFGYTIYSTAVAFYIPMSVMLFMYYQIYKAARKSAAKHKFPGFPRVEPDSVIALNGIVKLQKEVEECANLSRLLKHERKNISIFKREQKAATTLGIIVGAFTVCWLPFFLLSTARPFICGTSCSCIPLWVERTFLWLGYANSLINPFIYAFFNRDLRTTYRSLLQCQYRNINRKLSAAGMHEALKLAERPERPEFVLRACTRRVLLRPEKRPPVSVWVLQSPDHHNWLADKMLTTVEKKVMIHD

Ki [1] [nM] | Kb [2] [nM] | Kb [3] [nM] | inhibition [4] [%] | Activity (D(2) dopamine receptor [5]) | Activity [6] | Ki [7] [nM] | Activity [8] | Activity [9] | Ki (D(2) dopamine receptor [10]) [nM] | Ki [12] [nM] | Kb [13] [nM] | SMILES | inhibition at 1 µM [11] [%]
1 | 9.5 | 22 | 19 | inactive | inactive | 1.8 | inactive | inactive | 1.5 | 0.7 | 5.6 | Cc1c(S(=O)(=O)NCCCCN2CCC(c3noc4cc(F)ccc34)CC2)sc2ccc(Cl)cc12 | 0
3.7 | 15 | 2.5 | 1 | inactive | inactive | 13 | inactive | inactive | 16 | 0.6 | 0.5 | Cc1cccc(S(=O)(=O)NCCCN2CCC(c3noc4cc(F)ccc34)CC2)c1 | 52
0.7 | 11 | 11 | -3 | inactive | inactive | 6.2 | inactive | inactive | 15 | 0.8 | 9.2 | O=S(=O)(NCCCCN1CCN(c2noc3ccccc23)CC1)c1ccc2ccccc2c1 | 0
0.6 | 6.5 | 8.3 |  | inactive | inactive | 2.4 | inactive | inactive | 1 | 3.2 | 1 | O=S(=O)(NCCCCN1CCC(c2noc3cc(F)ccc23)CC1)c1ccc2cc(Cl)ccc2c1 | 
3.6 |  |  | -6 |  |  | 23 |  |  | 64 | 15 |  | O=S(=O)(NCCCCN1CCC(c2noc3cc(F)ccc23)CC1)c1ccc(OC(F)(F)F)cc1 | 73
15 |  |  | -10 |  |  | 53 |  |  | 39 | 5.3 |  | O=S(=O)(NCCCCN1CCN(c2nsc3ccccc23)CC1)c1ccc(F)c(Cl)c1 | 29
3.5 |  |  | 0 |  |  | 210 |  |  | 20 | 1.1 |  | Cc1cccc(S(=O)(=O)NCCN2CCC(c3noc4cc(F)ccc34)CC2)c1 | 42
5.5 |  |  | 1 |  |  | 42 |  |  | 3.2 | 3.2 |  | O=S(=O)(NCCCCN1CCN(c2nsc3ccccc23)CC1)c1cccs1 | 40
4.9 |  |  | 27 |  |  | 26 |  |  | 15 | 5.1 |  | O=S(=O)(NCCCCN1CCC(c2noc3cc(F)ccc23)CC1)c1ccc(Cl)c(Cl)c1 | 82
0.7 |  |  | -8 |  |  | 250 |  |  | 9.1 | 1.3 |  | O=S(=O)(NCCN1CCC(c2noc3cc(F)ccc23)CC1)c1cccc2ccccc12 | 0
2700 |  |  | 3 |  |  | 5200 |  |  | 5.3 | 67 |  | O=S(=O)(NCCCCN1CCN(c2noc3ccccc23)CC1)c1cccs1 | 39
7.5 |  |  | 0 |  |  | 120 |  |  | 16 | 3.4 |  | O=S(=O)(NCCCCN1CCN(c2nsc3ccccc23)CC1)c1cccc2scnc12 | 34
8.1 |  |  | 6 |  |  | 140 |  |  | 46 | 4.1 |  | O=S(=O)(NCCCCN1CCN(c2nsc3ccccc23)CC1)c1cnc2ccccn12 | 17
2.8 |  |  | -7 |  |  | 32 |  |  | 1 | 0.8 |  | O=S(=O)(NCCCN1CCC(c2noc3cc(F)ccc23)CC1)c1ccc2ccccc2c1 | 63
110 |  |  | -5 |  |  | 1600 |  |  | 7200 | 120 |  | O=S(=O)(NCCCN1CCN(c2noc3ccccc23)CC1)c1ccc2ccccc2c1 | 29
7.4 |  |  | -4 |  |  | 17 |  |  | 46 | 2.6 |  | Cc1c(S(=O)(=O)NCCCCN2CCN(c3noc4ccccc34)CC2)sc2ccc(F)cc12 | 29

Ki [1] [nM] | Kb [2] [nM] | Kb [3] [nM] | inhibition [4] [%] | Activity (D(2) dopamine receptor [5]) | Activity [6] | Ki [7] [nM] | Activity [8] | Activity [9] | Ki (D(2) dopamine receptor [10]) [nM] | Ki [12] [nM] | Kb [13] [nM] | SMILES | inhibition at 1 µM [11] [%]
17 |  |  | 6 |  |  | 27 |  |  | 77 | 0.1 |  | O=S(=O)(NCCCCN1CCN(c2noc3ccccc23)CC1)c1ccc(F)c(Cl)c1 | 45
0.4 |  |  | -4 |  |  | 100 |  |  | 8.7 | 1.6 |  | Cc1cccc(S(=O)(=O)NCCCCN2CCN(c3nsc4ccccc34)CC2)c1 | 17
10 |  |  | 0 |  |  | 40 |  |  | 2.2 | 1.5 |  | O=S(=O)(NCCCN1CCN(c2nsc3ccccc23)CC1)c1ccc2ccccc2c1 | 13
5.7 |  |  | 5 |  |  | 13 |  |  | 22 | 4.3 |  | O=S(=O)(NCCCCN1CCC(c2noc3cc(F)ccc23)CC1)c1csc2ccccc12 | 46
13 |  |  | -7 |  |  | 100 |  |  | 6 | 38 |  | O=S(=O)(NCCCN1CCN(c2nsc3ccccc23)CC1)c1ccc2cc(Cl)ccc2c1 | 7
6.5 |  |  | 10 |  |  | 54 |  |  | 44 | 4.6 |  | Cc1c(S(=O)(=O)NCCCCN2CCN(c3nsc4ccccc34)CC2)sc2ccc(F)cc12 | 5
190 |  |  | 2 |  |  | 1100 |  |  | 1300 | 180 |  | O=S(=O)(NCCCCN1CCN(c2noc3ccccc23)CC1)c1cc2ccccc2s1 | 14
2.3 |  |  | 2 |  |  | 25 |  |  | 8 | 10 |  | Cc1c(S(=O)(=O)NCCCN2CCC(c3noc4cc(F)ccc34)CC2)sc2ccc(F)cc12 | 43
6.5 |  |  | 2 |  |  | 45 |  |  | 45 | 9 |  | O=S(=O)(NCCCCN1CCN(c2nsc3ccccc23)CC1)c1cc2ccc(Cl)cc2s1 | 5
1.7 |  |  | -9 |  |  | 83 |  |  | 4 | 0.5 |  | O=S(=O)(NCCCN1CCC(c2noc3cc(F)ccc23)CC1)c1cccc2ccccc12 | 27
290 |  |  | 0 |  |  | 1100 |  |  | > 10000 | 34 |  | O=S(=O)(NCCCN1CCN(c2noc3ccccc23)CC1)c1ccc(Cl)c(Cl)c1 | 27
9.1 |  |  | 1 |  |  | 23 |  |  | > 1000 | 1.3 |  | O=S(=O)(NCCCN1CCC(c2noc3cc(F)ccc23)CC1)c1cccc2scnc12 | 51
1.6 |  |  | -2 |  |  | 13 |  |  | 36 | 0.9 |  | O=S(=O)(NCCCN1CCC(c2noc3cc(F)ccc23)CC1)c1csc2ccccc12 | 25
6.5 |  |  | -4 |  |  | 100 |  |  | 15 | 3.2 |  | O=S(=O)(NCCCN1CCC(c2noc3cc(F)ccc23)CC1)c1cnc2ccccn12 | 28
3.1 |  |  | -7 |  |  | 26 |  |  | 23 | 18 |  | O=S(=O)(NCCCN1CCC(c2noc3cc(F)ccc23)CC1)c1ccc2cc(Cl)ccc2c1 | 28
